In patent publication US20050101595A1, “N-containing cycloalkyl-substituted amino-thiazole derivatives and pharmaceutical compositions for inhibiting cell proliferation and methods for their use” (PFIZER INC., priority 2003, published 2005):
Counter-ions that a name gives are not always drawn. Like-named read-outs stand apart in the source and are kept apart here.

Assays:
HCT-116 cell line = experiment: Inhibition of cell growth, tetrazolium salt (MTT) assay; type: cell-based; details: for IC50: Homo sapiens, HCT-116, 120 h, MTT, three to five days, read-out: HCT-116 IC50; for HCT-116 % Inhibition at 0.25 μM: 0.25 μM compound
Procedure, shortened: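 HCT-116 cells in McCoy's 5A medium received compound 4 h after plating (0.5% v/v DMSO) and were incubated three to five days at 37° C, 5% CO2. MTT (0.2 mg/mL final) then added for 4 h; DMSO-solubilized formazan read at 540 nm against 0.5% DMSO-treated controls.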

[1] = target: human CDK4 and genetically truncated (1-264) cyclin D3 (Homo sapiens, UniProt P11802); experiment: Inhibition of CDK4/Cyclin D Retinoblastoma Kinase Activity; type: biochemical; details: for Ki: apparent Ki, CDK4/truncated cyclin D3, Rb fragment substrate, 25 μM ATP
Sequence of human CDK4 and genetically truncated (1-264) cyclin D3 (P11802 whole entry, the tested form may be a part): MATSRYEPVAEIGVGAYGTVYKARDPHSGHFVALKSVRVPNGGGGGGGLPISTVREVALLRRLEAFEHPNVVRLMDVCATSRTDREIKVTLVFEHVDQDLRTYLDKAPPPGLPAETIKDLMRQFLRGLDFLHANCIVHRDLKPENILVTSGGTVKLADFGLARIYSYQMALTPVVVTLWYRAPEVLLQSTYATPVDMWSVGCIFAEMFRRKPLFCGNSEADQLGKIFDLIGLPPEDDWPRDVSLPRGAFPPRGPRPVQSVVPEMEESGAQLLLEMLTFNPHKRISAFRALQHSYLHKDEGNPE
Sequence of human CDK4 and genetically truncated (1-264) cyclin D3 (P30281 1-264 partner): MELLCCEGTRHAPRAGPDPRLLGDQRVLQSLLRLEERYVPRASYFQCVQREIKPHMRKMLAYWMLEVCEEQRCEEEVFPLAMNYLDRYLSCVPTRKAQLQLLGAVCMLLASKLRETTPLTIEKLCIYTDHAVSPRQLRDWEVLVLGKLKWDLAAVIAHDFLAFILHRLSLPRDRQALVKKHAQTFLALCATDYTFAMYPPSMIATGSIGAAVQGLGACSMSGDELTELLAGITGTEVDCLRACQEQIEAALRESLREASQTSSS
Procedure, shortened: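 Apparent Ki values come from competitive or competitive tight-binding inhibition fits of background-corrected 32P/33P incorporation into His-tagged Rb fragment (386-928), captured on nitrocellulose. Reaction: 5 nM insect-cell-expressed human CDK4 with cyclin D3 (1-264), 25 μM ATP, pH 7.4 HEPES, 2% DMSO, 30° C., 20 min, extended to 60 min for tight-binding inhibitors.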

CDK2/Cyclin A = CDK2/Cyclin A (Homo sapiens, UniProt P24941); experiment: Inhibition of CDK2/Cyclin A Retinoblastoma Kinase Activity; type: biochemical; details: for Ki: apparent Ki, CDK2/proteolyzed cyclin A, Rb fragment substrate, 25 μM ATP; for CDK2 % Inhibition At 0.03 μM: Table 2
Procedure, shortened: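 Radiometric filter-binding readout of phosphate transfer to an Rb substrate fragment by purified CDK2/truncated cyclin A at 10 or 19 nM. Run at pH 7.4 with 25 μM ATP, 30 °C, 60–75 min, linear rates; background without enzyme subtracted, Ki from competitive-inhibition models.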

[2] = 0.1 μM compound, HCT-116, Table 4

CC1(C)CN(CCCS(=O)(=O)N2CCC(Nc3nc(N)c(C(=O)c4c(F)cccc4F)s3)CC2)CCN1 [Example K14, 1-(4-Amino-2-{1-[3-(3,3-dimethylpiperazin-1-yl)propane-1-sulfonyl]-piperidin-4-ylamino}-thiazol-5-yl)-1-(2,6-difluoro-phenyl)-methanone.]
IC50 (HCT-116 cell line; first HCT-116 column (c4)): 3300 nM
IC50 (HCT-116 cell line; second HCT-116 column (c5)): > 5000 nM
Ki [1]: 2.9 nM
Ki (CDK2/Cyclin A): 7.9 nM

Nc1nc(NC2CCN(C(=O)CC3CCCCC3)CC2)sc1C(=O)c1c(F)cccc1F [Example R100]
HCT-116 % Inhibition at 0.1 μM (HCT-116 cell line; HCT-116 cells, at 0.1 μM): 0%
HCT-116 5 Inhibition at 0.25 μM (HCT-116 cell line; HCT-116 cells): 49
CDK4 % Inhibition at 0.03 μM ([1]; at 0.03 μM): 10%
CDK2 % Inhibition at 0.03 μM (CDK2/Cyclin A; at 0.03 μM): −5%

Nc1nc(NC2CCN(C(=O)CCOc3ccccc3)CC2)sc1C(=O)c1c(F)cccc1F [Example R173]
HCT-116 % Inhibition at 0.1 μM (HCT-116 cell line; HCT-116 cells, at 0.1 μM): 0%
HCT-116 5 Inhibition at 0.25 μM (HCT-116 cell line; HCT-116 cells): 43
CDK4 % Inhibition at 0.03 μM ([1]; at 0.03 μM): 43%
CDK2 % Inhibition at 0.03 μM (CDK2/Cyclin A; at 0.03 μM): 23%

Nc1nc(NC2CCN(S(=O)(=O)CCCN3CCC4CCCCC4C3)CC2)sc1C(=O)c1c(F)cccc1F (mixture of isomers) [Example K10, 1-(4-Amino-2-{1-[3-([cis/trans]-octahydro-1H-isoquinolin-2-yl)propane-1-sulfonyl]-piperidin-4-ylamino}-thiazol-5-yl)-1-(2,6-difluoro-phenyl)-methanone.]
IC50 (HCT-116 cell line; first HCT-116 column (c4)): 190 nM
IC50 (HCT-116 cell line; second HCT-116 column (c5)): 1300 nM
Ki [1]: 1.1 nM
Ki (CDK2/Cyclin A): 2.6 nM

CSc1ccc(C(=O)N2CCC(Nc3nc(N)c(C(=O)c4c(F)cccc4F)s3)CC2)cc1 [Example R150]
HCT-116 % Inhibition at 0.1 μM (HCT-116 cell line; HCT-116 cells, at 0.1 μM): 2%
HCT-116 5 Inhibition at 0.25 μM (HCT-116 cell line; HCT-116 cells): 39
CDK4 % Inhibition at 0.03 μM ([1]; at 0.03 μM): 62%
CDK2 % Inhibition at 0.03 μM (CDK2/Cyclin A; at 0.03 μM): 40%

C/C=C/C(=O)N1CCC(Nc2nc(N)c(C(=O)c3c(F)cccc3F)s2)CC1 [Example Q46]
HCT-116 % Inhibition at 0.1 μM (HCT-116 cell line; [2]): 0%
HCT-116 % Inhibition at 0.25 μM (HCT-116 cell line; HCT-116, Table 4): 27%
CDK4 % Inhibition at 0.03 μM ([1]; 0.03 μM compound, Table 4): 25%
CDK2 % Inhibition at 0.03 μM (CDK2/Cyclin A; 0.03 μM compound, Table 4): −9%

Nc1nc(NC2CCN(C(=O)c3ccc(F)c(F)c3)CC2)sc1C(=O)c1c(F)cccc1F [Example Q73]
HCT-116 % Inhibition at 0.1 μM (HCT-116 cell line; [2]): 3%
HCT-116 % Inhibition at 0.25 μM (HCT-116 cell line; HCT-116, Table 4): 33%
CDK4 % Inhibition at 0.03 μM ([1]; 0.03 μM compound, Table 4): 78%
CDK2 % Inhibition at 0.03 μM (CDK2/Cyclin A; 0.03 μM compound, Table 4): 52%

Nc1nc(NC2CCN(S(=O)(=O)CCN3CC=CCC3)CC2)sc1C(=O)c1c(F)cccc1F [Example K32, (4-Amino-2-{1-[2-(3,6-dihydro-2H-pyridin-1-yl)-ethanesulfonyl]-piperidin-4-ylamino}-thiazol-5-yl)-(2,6-difluoro-phenyl)-methanone Trifluoroacetic Acid Salt.]
IC50 (HCT-116 cell line; first HCT-116 column (c4)): 190 nM
IC50 (HCT-116 cell line; second HCT-116 column (c5)): 1400 nM
Ki [1]: 2.1 nM
Ki (CDK2/Cyclin A): 6.2 nM

CCOC(=O)c1ccc(NC(=O)N2CCC(Nc3nc(N)c(C(=O)c4c(F)cccc4F)s3)CC2)cc1 [Example O22]
HCT-116 % Inhibition at 0.25 μM (HCT-116 cell line; HCT-116, Table 2): 25%
CDK4 % Inhibition at 0.03 μM ([1]; 0.03 μM compound, Table 2): 13%
CDK2 % Inhibition At 0.03 μM (CDK2/Cyclin A; 0.03 μM compound): 34%

Cc1noc(C)c1S(=O)(=O)N1CCC(Nc2nc(N)c(C(=O)c3c(F)cccc3F)s2)CC1 [Example F1]
IC50 (HCT-116 cell line; first HCT-116 column (c4)): 1400 nM
IC50 (HCT-116 cell line; second HCT-116 column (c5)): 4500 nM
Ki [1]: 14 nM
Ki (CDK2/Cyclin A): 12 nM

C=Cc1ccc(C(=O)N2CCC(Nc3nc(N)c(C(=O)c4c(F)cccc4F)s3)CC2)cc1 [Example R156]
HCT-116 % Inhibition at 0.1 μM (HCT-116 cell line; HCT-116 cells, at 0.1 μM): 0%
HCT-116 5 Inhibition at 0.25 μM (HCT-116 cell line; HCT-116 cells): 43
CDK4 % Inhibition at 0.03 μM ([1]; at 0.03 μM): 89%
CDK2 % Inhibition at 0.03 μM (CDK2/Cyclin A; at 0.03 μM): 65%

CC(NC(=O)N1CCC(Nc2nc(N)c(C(=O)c3c(F)cccc3F)s2)CC1)c1ccccc1 (centres unmarked) [Example O28]
HCT-116 % Inhibition at 0.25 μM (HCT-116 cell line; HCT-116, Table 2, 0.25 µM): 43%
CDK4 % Inhibition at 0.03 μM ([1]; 0.03 μM compound, Table 2, 0.03 µM): 12%
CDK2 % Inhibition At 0.03 μM (CDK2/Cyclin A; 0.03 μM compound, 0.03 µM): 27%

Cc1nn(C)c(Cl)c1S(=O)(=O)N1CCC(Nc2nc(N)c(C(=O)c3c(F)cccc3F)s2)CC1 [Example P50]
HCT-116 % Inhibition at 0.1 μM (HCT-116 cell line; 0.1 μM compound, HCT-116, Table 3): 14%
HCT-116 % Inhibition at 0.25 μM (HCT-116 cell line; HCT-116, Table 3): 25%
CDK4 % Inhibition at 0.03 μM ([1]; 0.03 μM compound, Table 3): 35%
CDK2 % Inhibition at 0.03 μM (CDK2/Cyclin A; 0.03 μM compound, Table 3): 30%
